According to publication PMC5602355, “Endogenous Isoquinoline Alkaloids Agonists of Acid-Sensing Ion Channel Type 3” (Frontiers in Molecular Neuroscience, 2017):

How the values were obtained:
human ASIC3 (hASIC3) [1] = molecular target: T1, human ASIC3 (hASIC3) (Homo sapiens, UniProt Q9UHC3); assay: Activation of hASIC3 channels expressed in Xenopus laevis oocytes, whole-cell two electrode voltage clamp; format: cell-based; conditions: for Maximal activating effect reached, % of Imax: Imax predicted by logistic fit
T1 construct: expressed in transfected cells; host or cells: Xenopus laevis oocytes (injected)
T1 sequence (Q9UHC3 1-531): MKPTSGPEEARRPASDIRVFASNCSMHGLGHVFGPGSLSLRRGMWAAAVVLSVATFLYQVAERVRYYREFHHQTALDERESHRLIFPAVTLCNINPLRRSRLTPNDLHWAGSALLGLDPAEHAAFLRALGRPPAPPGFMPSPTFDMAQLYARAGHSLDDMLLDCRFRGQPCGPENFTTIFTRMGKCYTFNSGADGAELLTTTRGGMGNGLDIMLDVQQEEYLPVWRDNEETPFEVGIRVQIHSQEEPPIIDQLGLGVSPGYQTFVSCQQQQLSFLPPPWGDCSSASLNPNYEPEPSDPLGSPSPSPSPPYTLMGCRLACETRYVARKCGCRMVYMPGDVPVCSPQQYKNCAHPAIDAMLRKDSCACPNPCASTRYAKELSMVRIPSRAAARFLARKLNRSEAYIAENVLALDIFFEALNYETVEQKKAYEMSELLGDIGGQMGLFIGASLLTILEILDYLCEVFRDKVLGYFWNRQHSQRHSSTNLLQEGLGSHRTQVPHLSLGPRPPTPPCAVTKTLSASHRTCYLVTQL
From the text: (§1) The ability of EIAs to activate ASIC3 channels was studied in whole-cell configuration on oocytes of Xenopus laevis. THP and reticuline caused slowly activated sustained inward currents both in human (Figures 1A,B) and rat (Figures 1C,D) homomeric ASIC3 channels at resting pH 7.4 and above.
(§2) In the case of human ASIC3 channels (hASIC3), the activating effect was greater and even exceeded the response of the cell to pH drop of 7.8–5.5 in control experiments (Figure 1A). The maximal effect reached about 30% of Imax (a maximal amplitude predicted by the logistic equation fitting of dose-dependence of EIA-induced current). […] THP shown the same potency on the rASIC3 channel (rASIC3; Figure 1C). The activating effect under the same conditions reached about 30% of Imax.
(§3) Consequently, a maximal concentration of 1 mM was used in experimentations. The maximal effect on hASIC3 reached about 60% of Imax.
(§4) Oocytes expressed hASIC3 and rASIC3 homomeric channels were prepared as described (Dubinnyi et al., [2012]). After injection, the oocytes were kept for 2–3 days at 19°C and then up to 7 days at 15°C in an ND-96 medium containing (in mM): 96 NaCl, 2 KCl, 1.8 CaCl2, 1 MgCl2 and 10 HEPES titrated to pH 7.4 with NaOH supplemented with gentamycin (50 μg/ml). Two electrode voltage clamp recordings were made using a GeneClamp500 amplifier (Axon Instruments), and data were filtered at 20 Hz and digitized at 100 Hz by an AD converter L780 (L-Card, Moscow, Russia) using homemade software. A computer-controlled valve system for a fast solution switch was used. Microelectrodes were filled with 3 M KCl solutions. All solutions of the testing compounds were supplemented with 0.1% BSA. To induce currents, we employed ND-96-modified solutions in which 10 mM of HEPES was substituted for 5 mM MES pH 5.5. A set of external ND-96 solutions with pH 6.8–7.0 (buffered with 10 mM of MOPS), pH 7.1–8.0 (buffered with 10 mM of HEPES) was prepared.
The analysis of electrophysiological data was performed using the program OriginPro 8.6. The curve-fitting analysis was carried out with the following four-parameter logistic equation: F(x) = A/(1 + (x/x0)n), where x is the concentration of the ligand, F(x) is the response value at a given ligand concentration, A is the response value at maximal activation (% of control), x0 is the EC50 value and n is the Hill coefficient (slope factor). All data are presented as the mean ± SE.

[2] = Solubility in physiological solutions for electrophysiology; format: physicochemical; conditions: in words; maximal concentration used 1 mM
Experimental: as §3

rat ASIC3 (rASIC3) [3] = molecular target: T2, rat ASIC3 (rASIC3) (Rattus norvegicus, UniProt O35240); assay: Activation of rASIC3 channels expressed in Xenopus laevis oocytes, whole-cell two electrode voltage clamp; format: cell-based
T2 construct: expressed in transfected cells; host or cells: Xenopus laevis oocytes (injected)
T2 sequence (O35240 1-533): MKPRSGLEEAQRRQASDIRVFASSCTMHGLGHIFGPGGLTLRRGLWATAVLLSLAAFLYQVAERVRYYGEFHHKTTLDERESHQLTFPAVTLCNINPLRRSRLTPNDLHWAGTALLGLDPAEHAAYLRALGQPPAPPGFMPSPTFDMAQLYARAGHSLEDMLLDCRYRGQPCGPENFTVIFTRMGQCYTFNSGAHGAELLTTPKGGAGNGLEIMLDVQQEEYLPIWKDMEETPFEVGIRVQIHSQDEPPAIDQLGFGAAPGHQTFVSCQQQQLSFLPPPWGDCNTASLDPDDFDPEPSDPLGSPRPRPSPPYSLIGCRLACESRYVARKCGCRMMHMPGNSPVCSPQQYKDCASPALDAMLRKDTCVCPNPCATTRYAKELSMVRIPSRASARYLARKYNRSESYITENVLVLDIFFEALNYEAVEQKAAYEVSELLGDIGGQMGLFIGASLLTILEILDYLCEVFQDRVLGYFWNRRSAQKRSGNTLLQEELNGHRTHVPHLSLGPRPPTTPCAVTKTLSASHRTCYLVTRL
From the text: as §1, §2, §4
(§5) The analysis of electrophysiological data was performed using the program OriginPro 8.6. […]

human ASIC3 (hASIC3) [4] = molecular target: T1, human ASIC3 (hASIC3); assay: Recovery of the transient current of hASIC3 from steady-state desensitization, oocytes; format: cell-based; conditions: hASIC3, conditioning pH 7.3, pH 5.5 stimulus, n = 4-5
Experimental: EIAs cause both the channel activation and transient component of hASIC3 current restoration from a desensitization at pH 7.3 (Figures 2A,D). For THP, the restoration effect was more pronounced. This effect was dose-dependent and reached a maximal possible value at the highest applied concentration of THP (10 mM). […] For this reason, the maximal amplitude of the transient current recovered by THP from desensitization (Imax) was predicted by the fitting of the dose dependence by a logistic equation for each experimental cell.
as §4, with “To induce currents, we employed ND-96-modified solutions in which 10 mM of HEPES was substituted for 5 mM MES pH 5.5. A set of external ND-96 solutions with pH 6.8–7.0 (buffered with 10 mM of MOPS), pH 7.1–8.0 (buffered with 10 mM of HEPES) was prepared.” left out

rat ASIC3 (rASIC3) [5] = molecular target: T2, rat ASIC3 (rASIC3); assay: Recovery of the transient current of rASIC3 from steady-state desensitization, oocytes; format: cell-based; conditions: rASIC3, conditioning pH 6.8, pH 5.5 stimulus, n = 4-5
Experimental: as §4, §5

[6] = hASIC3, holding pH 7.8, logistic fit, n = 5

| Compound | Hill coefficient (nH) of channel activation (human ASIC3 (hASIC3) [1]; [6]) | EC50 (human ASIC3 (hASIC3) [1]; hASIC3, holding pH 7.8, logistic fit, n = 5, read-out: EC50 of channel activation (EIA-induced sustained current)) | Maximal activating effect reached, % of Imax (human ASIC3 (hASIC3) [1]; hASIC3, maximal concentration 1 mM) | Solubility in physiological solutions for electrophysiology [2] | EC50 (human ASIC3 (hASIC3) [1]) | Maximal activating effect reached, % of Imax (human ASIC3 (hASIC3) [1]; hASIC3, pH 7.8, highest accessible concentration 10 mM) | Hill coefficient (nH) of channel activation (rat ASIC3 (rASIC3) [3]; rASIC3, holding pH 7.8, logistic fit, n = 5) | EC50 (rat ASIC3 (rASIC3) [3]; rASIC3, holding pH 7.8, logistic fit, n = 5, read-out: EC50 of channel activation (EIA-induced sustained current)) | Maximal activating effect reached, % of Imax (rat ASIC3 (rASIC3) [3]; rASIC3, pH 7.8, up to 10 mM, Imax predicted by logistic fit) | EC50 (human ASIC3 (hASIC3) [4]) | EC50 (rat ASIC3 (rASIC3) [5]) |
| --- | --- | --- | --- | --- | --- | --- | --- | --- | --- | --- | --- |
| COc1ccc(CC2c3cc(O)c(OC)cc3CCN2C)cc1O (stereo not drawn) [Reticuline, reticuline] | 0.85 ± 0.05 | 0.56 ± 0.04 mM | about 60 % of Imax | does not have a high solubility | – | – | – | – | – | – | – |
| Oc1ccc(CC2NCCc3cc(O)c(O)cc32)cc1O (stereo not drawn) [THP, tetrahydropapaveroline] | 0.99 ± 0.05 | – | – | – | > 10 mM | about 30 % of Imax | 0.95 ± 0.04 | > 10 mM | about 30 % of Imax | 2.3 ± 0.04 mM | 4.6 ± 0.1 mM |
